Laboratory results from patent publication US10035790B2, “RORγ modulators” (BRISTOL-MYERS SQUIBB COMPANY, priority 2012, dated 2018).

These molecules were tested against T1, ligand binding domain of human RORγ (A262-S507) (Homo sapiens, UniProt P51449) (assay: General RORγ SPA binding assay (competition with [3H]25-hydroxycholesterol)). Conditions: RORγ SPA binding assay, inhibition of [3H]25-hydroxycholesterol binding; read-out: IC50.
T1 construct: made in house; host or cells: E. coli
T1 sequence (P51449 262-507): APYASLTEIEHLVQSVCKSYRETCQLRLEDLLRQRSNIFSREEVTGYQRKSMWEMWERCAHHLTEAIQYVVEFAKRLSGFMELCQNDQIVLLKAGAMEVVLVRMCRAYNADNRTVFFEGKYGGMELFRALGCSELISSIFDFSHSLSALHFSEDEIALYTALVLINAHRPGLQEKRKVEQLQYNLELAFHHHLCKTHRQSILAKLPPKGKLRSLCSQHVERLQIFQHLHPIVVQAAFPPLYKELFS
Description: Example 2 General RORγ SPA Binding Assay
The binding of potential ligands to RORγ is measured by competition with [^3H]25-hydroxycholesterol using a scintillation proximity assay (SPA) binding assay. The ligand binding domain of human RORγ (A262-S507) with an N-terminal His tag is expressed in E. coli and purified using nickel affinity chromotography. 50 nM RORγ (A262-S507) is incubated with test compound at varying concentrations for 15 min at room temperature in PBS buffer containing 0.5% fatty acid free BSA. […] of [^3H]25-hydroxycholesterol is then added, and the reaction is incubated for 15 min. 4 mg/mL of Ysi Copper HIS-TAG SPA Beads (Perkin Elmer) are added, and the mixture is incubated for 30 min. The reaction is read on a MicroBeta Trilux scintillation plate reader (Perkin Elmer). IC50 values are determined from the percentage inhibition of [^3H]25-hydroxycholesterol binding.

Question: How did the IC50 turn out when `Cc1cc(C)cc(CNC(=O)c2cnc(C)nc2C2CCN(C(=O)Cc3ccccc3Cl)CC2)c1` [Compound A7, 4-(1-(2-(2-chlorophenyl)acetyl)piperidin-4-yl)-N-(3,5-dimethylbenzyl)-2-methylpyrimidine-5-carboxamide] was run?
Answer: 28.1 nM

Question: Which IC50 does the source give for `C/C(=N\Oc1cccc(F)c1)c1cnc(C)nc1C1CCN(C(=O)Cc2c(F)cccc2F)CC1` [Compound B16, (E)-2-(2,6-difluorophenyl)-1-(4-(5-(1-((3-fluorophenoxy)imino)ethyl)-2-methylpyrimidin-4-yl)piperidin-1-yl)ethanone] here?
Answer: 5.9 nM

Question: For `Cc1ncc(C(N)COc2cccc(C(F)(F)F)n2)c(C2CCN(C(=O)Nc3c(F)cccc3F)CC2)n1` (stereo not drawn) [Compound N23, 4-[5-(1-Amino-2-{[6-(trifluoromethyl)pyridin-2-yl]oxy}ethyl)-2-methylpyrimidin-4-yl]-N-(2,6-difluorophenyl)piperidine-1-carboxamide], which IC50 is on record?
Answer: 12.3 nM

Question: `C/C(=N/Oc1cc(F)nc(F)c1)c1cnc(N)nc1C1CCN(C(=O)Nc2c(F)cccc2F)CC1` [Compound B57, 4-(2-Amino-5-{(1Z)—N-[(2,6-difluoropyridin-4-yl)oxy]ethanimidoyl}pyrimidin-4-yl)-N-(2,6-difluorophenyl)piperidine-1-carboxamide] was tested. Which IC50 did it give?
Answer: 92.7 nM

Question: How did the IC50 turn out when `C/C(=N\Oc1cc(F)nc(F)c1)c1cnc(N)nc1C1CCN(C(=O)Nc2c(F)cccc2F)CC1` [Compound B56, 4-(2-Amino-5-{(1E)-N-[(2,6-difluoropyridin-4-yl)oxy]ethanimidoyl}pyrimidin-4-yl)-N-(2,6-difluorophenyl)piperidine-1-carboxamide] was run?
Answer: 31.8 nM

Question: `Cc1ncc(C(=O)NCc2cccc(OC(F)(F)F)c2)c(C2CCN(C(=O)Cc3c(F)cccc3F)CC2)n1` [Compound A53, 4-(1-(2-(2,6-difluorophenyl)acetyl)piperidin-4-yl)-2-methyl-N-(3-(trifluoromethoxy)benzyl)pyrimidine-5-carboxamide] was tested. Which IC50 did it give?
Answer: 8.1 nM

Question: For `Cc1ncc(C2(COc3cccc(C(F)(F)F)n3)CNC(=O)O2)c(C2CCN(C(=O)Nc3c(F)cccc3F)CC2)n1` (stereo not drawn) [Compound N52, N-(2,6-Difluorophenyl)-4-{2-methyl-5-[2-oxo-5-({[6-(trifluoromethyl)pyridin-2-yl]oxy}methyl)-1,3-oxazolidin-5-yl]pyrimidin-4-yl}piperidine-1-carboxamide], which IC50 is on record?
Answer: 13.8 nM

Question: Which IC50 does the source give for `Cc1nc(C)c(C(=O)NCc2cccc(Cl)c2)c(C2CCN(C(=O)Cc3c(F)cccc3F)CC2)n1` [Compound A81] here?
Answer: 5.2 nM

Question: With `Cc1nc(N)nc(C2CCN(C(=O)Nc3c(F)cccc3F)CC2)c1C(=O)COc1ccnc(C(F)(F)F)n1` [Compound M10, 4-[2-Amino-6-methyl-5-({[2-(trifluoromethyl)pyrimidin-4-yl]oxy}acetyl)pyrimidin-4-yl]-N-(2,6-difluorophenyl)piperidine-1-carboxamide] as the molecule, how does the IC50 read?
Answer: 5.3 nM

Question: `Nc1ncc(C(=O)NCc2cccc(Cl)c2)c(C2CCN(C(=O)Cc3c(F)cccc3F)CC2)n1` [Compound A89, 2-amino-N-(3-chlorobenzyl)-4-(1-(2-(2,6-difluorophenyl)acetyl)piperidin-4-yl)pyrimidine-5-carboxamide] was tested. Which IC50 did it give?
Answer: 5.8 nM

Question: With `Cc1nc(C)c(-c2nc(-c3ccc(F)cc3)no2)c(C2CCN(C(=O)Cc3c(F)cccc3F)CC2)n1` [Compound C2, 2-(2,6-difluorophenyl)-1-(4-(5-(3-(4-fluorophenyl)-1,2,4-oxadiazol-5-yl)-2,6-dimethylpyrimidin-4-yl)piperidin-1-yl)ethanone] as the molecule, how does the IC50 read?
Answer: 337 nM

Question: For `CSc1ncc(C(C)(O)COc2cccc(C(F)(F)F)n2)c(C2CCN(C(=O)Nc3c(F)cccc3F)CC2)n1` (stereo not drawn) [Compound D26, N-(2,6-Difluorophenyl)-4-[5-(1-hydroxy-1-methyl-2-{[6-(trifluoromethyl)pyridin-2-yl]oxy}ethyl)-2-(methylthio)pyrimidin-4-yl]piperidine-1-carboxamide], which IC50 is on record?
Answer: 12.6 nM

Question: How did the IC50 turn out when `Cc1cc(C)cc(CNC(=O)c2cnc(C)nc2C2CCN(C(=O)Cc3ccc(F)c(F)c3)CC2)c1` [Compound A34, 4-(1-(2-(3,4-difluorophenyl)acetyl)piperidin-4-yl)-N-(3,5-dimethylbenzyl)-2-methylpyrimidine-5-carboxamide] was run?
Answer: 2690 nM

Question: `Cc1ncc(C(C)(O)COc2cccc(C(F)(F)F)n2)c(C2CCN(C(=O)Cc3c(F)cccc3F)CC2)n1` (stereo not drawn) [Compound D24, 2-(4-{1-[(2,6-difluorophenyl)acetyl]piperidin-4-yl}-2-methylpyrimidin-5-yl)-1-{[6-(trifluoromethyl)pyridin-2-yl]oxy}propan-2-ol] was tested. Which IC50 did it give?
Answer: 5 nM

Question: With `Nc1ncc(C(O)COc2ccnc(C(F)(F)F)n2)c(C2CCN(C(=O)Nc3c(F)cccc3F)CC2)n1` (stereo not drawn) [Compound N2, 4-[2-Amino-5-(1-hydroxy-2-{[2-(trifluoromethyl)pyrimidin-4-yl]oxy}ethyl)pyrimidin-4-yl]-N-(2,6-difluorophenyl)piperidine-1-carboxamide] as the molecule, how does the IC50 read?
Answer: 19.5 nM

Question: With `Cc1ncc(C(N)(COc2cccc(C(F)(F)F)n2)C(N)=O)c(C2CCN(C(=O)Nc3c(F)cccc3F)CC2)n1` (stereo not drawn) [Compound N49, 4-{5-[1,2-Diamino-2-oxo-1-({[6-(trifluoromethyl)pyridin-2-yl]oxy}methyl)ethyl]-2-methylpyrimidin-4-yl}-N-(2,6-difluorophenyl)piperidine-1-carboxamide] as the molecule, how does the IC50 read?
Answer: 176 nM

Question: How did the IC50 turn out when `C/C(=N\Oc1ccnc(C(F)(F)F)c1)c1cnc(C)nc1C1CCN(C(=O)Cc2c(F)cccc2F)CC1` [Compound B14, (E)-2-(2,6-difluorophenyl)-1-(4-(2-methyl-5-(1-(((2-(trifluoromethyl)pyridin-4-yl)oxy)imino)ethyl)pyrimidin-4-yl)piperidin-1-yl)ethanone] was run?
Answer: 4.8 nM

Question: With `Cc1ncc(C(O)(COc2cccc(C(F)(F)F)n2)C(=O)O)c(C2CCN(C(=O)Nc3c(F)cccc3F)CC2)n1` (stereo not drawn) [Compound N44, 2-[4-(1-{[(2,6-Difluorophenyl)amino]carbonyl}piperidin-4-yl)-2-methylpyrimidin-5-yl]-2-hydroxy-3-{[6-(trifluoromethyl)pyridin-2-yl]oxy}propanoic acid] as the molecule, how does the IC50 read?
Answer: 899 nM

Question: With `Cc1ncc(C(C)(O)COc2cncc(Cl)c2)c(C2CCN(C(=O)Cc3c(F)cccc3F)CC2)n1` (stereo not drawn) [Compound D13, 1-(4-(5-(1-((5-chloropyridin-3-yl)oxy)-2-hydroxypropan-2-yl)-2-methylpyrimidin-4-yl)piperidin-1-yl)-2-(2,6-difluorophenyl)ethanone] as the molecule, how does the IC50 read?
Answer: 8.9 nM

Question: For `Cc1nc(N)nc(C2CCN(C(=O)Nc3c(F)cccc3F)CC2)c1C(O)COc1cccc(C(F)(F)F)n1` (stereo not drawn) [Compound N9, 4-[2-Amino-5-(1-hydroxy-2-{[6-(trifluoromethyl)pyridin-2-yl]oxy}ethyl)-6-methylpyrimidin-4-yl]-N-(2,6-difluorophenyl)piperidine-1-carboxamide], which IC50 is on record?
Answer: 4.2 nM

Question: How did the IC50 turn out when `Cc1nc(C)c(-c2nnc(-c3ccnc(C(F)(F)F)n3)o2)c(C2CCN(C(=O)Cc3ccccc3F)CC2)n1` [Compound C25, 1-(4-(2,6-dimethyl-5-(5-(2-(trifluoromethyl)pyrimidin-4-yl)-1,3,4-oxadiazol-2-yl)pyrimidin-4-yl)piperidin-1-yl)-2-(2-fluorophenyl)ethanone] was run?
Answer: 23.1 nM

Question: How did the IC50 turn out when `Cc1nc(C)c(-c2nnc(-c3ccnc(C(F)(F)F)n3)o2)c(C2CCN(C(=O)Nc3c(F)cccc3F)CC2)n1` [Compound C28, N-(2,6-Difluorophenyl)-4-(2,6-dimethyl-5-{5-[2-(trifluoromethyl)pyrimidin-4-yl]-1,3,4-oxadiazol-2-yl}pyrimidin-4-yl)piperidine-1-carboxamide] was run?
Answer: 65.2 nM

Question: Which IC50 does the source give for `CNc1ncc(C(=O)NCc2cccc(Cl)c2)c(C2CCN(C(=O)Cc3c(F)cccc3F)CC2)n1` [Compound A90, N-(3-chlorobenzyl)-4-(1-(2-(2,6-difluorophenyl)acetyl)piperidin-4-yl)-2-(methylamino)pyrimidine-5-carboxamide] here?
Answer: 6.3 nM

Question: For `CCNc1ncc(C(=O)NCc2cccc(Cl)c2)c(C2CCN(C(=O)Cc3c(F)cccc3F)CC2)n1` [Compound A91, N-(3-chlorobenzyl)-4-(1-(2-(2,6-difluorophenyl)acetyl)piperidin-4-yl)-2-(ethylamino)pyrimidine-5-carboxamide], which IC50 is on record?
Answer: 6.7 nM

Question: Which IC50 does the source give for `CC(=O)N1CCC(NCC(O)(COc2cccc(C(F)(F)F)n2)c2cnc(C)nc2C2CCN(C(=O)Nc3c(F)cccc3F)CC2)C1` (stereo not drawn) [Compound N40, 4-(5-{2-[(1-Acetylpyrrolidin-3-yl)amino]-1-hydroxy-1-({[6-(trifluoromethyl)pyridin-2-yl]oxy}methyl)ethyl}-2-methylpyrimidin-4-yl)-N-(2,6-difluorophenyl)piperidine-1-carboxamide] here?
Answer: 134 nM

Question: Which IC50 does the source give for `Cc1ncc(/C(CO)=N\Oc2ccnc(C(F)(F)F)n2)c(C2CCN(C(=O)Cc3c(F)cccc3F)CC2)n1` [Compound B26, (E)-2-(2,6-difluorophenyl)-1-(4-(5-(2-hydroxy-1-(((2-(trifluoromethyl)pyrimidin-4-yl)oxy)imino)ethyl)-2-methylpyrimidin-4-yl)piperidin-1-yl)ethanone] here?
Answer: 95 nM

Question: With `Cc1nc(N)nc(C2CCN(C(=O)Nc3ccccc3Cl)CC2)c1-c1nnc(-c2ccnc(C(F)(F)F)n2)o1` [Compound C71, 4-(2-Amino-6-methyl-5-{5-[2-(trifluoromethyl)pyrimidin-4-yl]-1,3,4-oxadiazol-2-yl}pyrimidin-4-yl)-N-(2-chlorophenyl)piperidine-1-carboxamide] as the molecule, how does the IC50 read?
Answer: 30.2 nM
